Assays:
SAP = experiment: Serum SAP in CREBH knockdown and control RNAi mice (ELISA); type: in vivo, mouse; conditions: Tm 2 μg/gram body weight i.p., 24 hours
Experimental: (A) Identification of CREBH knockdown mice by Northern blot analysis. Transgenic mice with empty vector lentivirus expressing GFP were used as controls. Total RNAs (15 μg/lane) were isolated from the livers of the CREBH RNAi or the control mice, and subjected to Northern blot analysis. A 260 bp GFP cDNA fragment and a 210 bp mouse CREBH cDNA fragment were used as probes for detecting levels of GFP mRNA and CREBH mRNA, respectively. Levels of ββ-actin mRNA were determined for control of sample loading. (B) Morphology of CREBH knockdown embryos. The embryos were collected at gestation stage E14.5. The paraffin-embedded embryo sections were stained with hematoxylin and eosin. Magnification: 20 X. (C) Northern blot analysis of levels of CREBH, CRP and SAP mRNA in the livers of the CREBH knockdown or the control mice. Levels of β-actin mRNA were determined for sample loading controls. (D-E) Serum levels of SAP and CRP in the CREBH knockdown and the siRNA control mice in response to IL6 plus IL1β LPS or Tm. CREBH knockdown and RNAi control mice at 3-months of age were challenged with recombinant mouse IL6 (25 ng/gram body weight) plus recombinant mouse IL1β (25 ng/gram body weight), LPS (3 μg/gram body weight) or Tm (2 mg/kg body weight). Serum levels of SAP and CRP in the mice were determined before injection and at 24 hours after IL6 plus IL1β, LPS or Tm injection. […]

[1] = test system: CREBH and ATF6 heterodimers; experiment: IP-Western blot of CREBH and ATF6 interaction in 293T cells; type: cell-based, human; conditions: 293T cells expressing flag-tagged CREBH; 8 hours after Tm treatment
Experimental: FIG. 11 depicts the synergistic interaction of CREBH with ATF6 to activate transcription of the major APR genes. (A) Luciferase reporter analysis of trans-activation effects of CREBH on promoters of the murine SAP gene and the human CRP gene in H2.35 cells. H2.35 cells in a 35 mm collagen-coated plate were co-transfected with a control vector or a CREBH expression vector (0.25 μg), the luciferase reporter (0.6 μg) and pcDNA3-LacZ (0.25 μg), and were then cultured in the absence or presence of Tm (5 μg/ml) for 10 hours. (B) CREBH-DN efficiently suppresses CREBH trans-activation on the murine SAP and the human CRP promoters. […] (C) Interaction between ATF6 and CREBH was determined by IP-Western blot analysis. […] Expression levels of CREBH in the transfected cells were determined by Western blot analysis of total cell lysates using the anti-flag antibody (lower panel). […]
For analysis of expression and cleavage of CREBH protein, total cell lysates were prepared from H2.35 cells or COS7 cells using Nonidet P-40 lysis buffer (1% NP-40, 50 mM Tris-HCl at pH 7.5, 150 mM NaCl, 0.05% SDS) supplemented with protease inhibitors (Complete Mini from Roche Applied Science), 0.1 mM sodium vanadate, and 1 mM sodium fluoride. […] The total cell lysate, membrane and nuclear fractions were subjected to SDS-PAGE and then analyzed by Western blot using anti-flag monoclonal antibody or other antibodies. […]

Q: Which results are given for tunicamycin [Tm]?
A: increase of serum SAP (SAP; CREBH knockdown mice): approximately 2 fold; increase of serum levels of SAP (SAP; control mice): approximately 12 fold; interaction between CREBH and ATF6 [1]: significantly increased

From US20070111258A1, “Compositions and methods for modulating the acute phase response” (priority 2005, published 2007)
